This assay deals with Onchocerca gutturosa Adult Male Worms. In words: Onchocerciasis in vitro screening model, worm motility score. The assay is classed as cell-based. The settings on record: read-out: O. gutturosa activity level (IC50 or MED).
[1] abbreviates: Onchocerca gutturosa, Table 1 O. gutturosa, levels A/B/C, motility or MTT readout not specified.
Where [2] appears, read: in vitro, Onchocerca gutturosa adult male worms, class A/B/C.

Like-named read-outs stand apart in the source and are kept apart here.

Regarding `CC(C)Oc1cc(-c2nsc(Nc3ncccc3N(C)C)n2)ncc1C(F)(F)F` [Compound 147, N2-(3-(4-isoprop-oxy-5-(trifluoromethyl)pyridin-2-yl)-1,2,4-thiadiazol-5-yl)-N3,N3-dimethyl-pyridine-2,3-diamine], the IC50 under setting [1] was in the range of 500 to 5000 nM.

`CC(C)Oc1ccc(-c2nsc(Nc3ncccc3C(=O)N(C)C3CC3)n2)nc1` [Compound 262, N-cyclo-propyl-2-(3-(5-isopropoxy-pyridin-2-yl)-1,2,4-thiadiazol-5-ylamino)-N-methyl-nicotinamide]: the IC50 under setting [2] fell in the range of 500 to 5000 nM.

Take `CN1CCC(Oc2ccc(-c3nsc(Nc4ncccc4N(C)C)n3)nc2)CC1` [Compound 59, N3,N3-dimethyl-N2-(3-(5-(1-methylpiperidin-4-yloxy)pyridin-2-yl)-1,2,4-thiadiazol-5-yl)pyridine-2,3-diamine]: under setting [1], the IC50 was in the range of 500 to 5000 nM.

In the case of `CN(C)C(=O)c1cccnc1Nc1nc(-c2cc3c(cn2)N(C)CC3)ns1` [Compound 229, N,N-dimethyl-2-(3-(1-methyl-2,3-dihydro-1H-pyrrolo[2,3-c]pyridin-5-yl)-1,2,4-thiadiazol-5-ylamino) nicotinamide], the IC50 under setting [2] was in the range of 500 to 5000 nM.

As to `CC(=O)N(C)c1cnc(Nc2nc(-c3ccc(OC(C)C)cn3)ns2)c(C(F)(F)F)c1` [Compound 300, N-(6-(3-(5-isopropoxypyridin-2-yl)-1,2,4-thiadiazol-5-ylamino)-5-(trifluoromethyl)pyridin-3-yl)-N-methylacetamide], under setting [2], the IC50 was in the range of 500 to 5000 nM.

In the case of `CN(C)c1cccnc1Nc1nc(-c2cc3c(cn2)N(C)CC3)ns1` [Compound 162, N3,N3-dimethyl-N2-(3-(1-methyl-2,3-dihydro-1H-pyrrolo[2,3-c]pyridin-5-yl)-1,2,4-thiadiazol-5-yl)pyridine-2,3-diamine], under setting [1], the IC50 was under 200 nM.

For `CC(=O)N(C)c1cc(C(F)(F)F)cnc1Nc1nc(-c2ccccn2)ns1` [Compound 325, N-methyl-N-(2-(3-(pyridin-2-yl)-1,2,4-thiadiazol-5-ylamino)-5-(trifluoromethyl)pyridin-3-yl)acetamide], under setting [2], the IC50 was under 200 nM.

In the case of `COc1cccnc1Nc1nc(-c2ccc(OC3CCN(C4CC4)CC3(F)F)cn2)ns1` (stereo not drawn) [Compound 129, 3-(5-(1-cyclopropyl-3,3-difluoro-piperidin-4-yloxy)pyridin-2-yl)-N-(3-methoxypyridin-2-yl)-1,2,4-thiadiazol-5-amine], the IC50 under setting [1] is 500 to 5000 nM.

For the compound `c1ccc(-c2nsc(Nc3ccc(N4CCOCC4)cn3)n2)nc1` [Cmpd 5, N-(5-morpholino-pyridin-2-yl)-3-(pyridin-2-yl)-1,2,4-thiadiazol-5-amine], the IC50 under setting [1] was in the range of 500 to 5000 nM.

Regarding `Cc1cccnc1N(C)c1nc(-c2ccc(OC(C)C)cn2)ns1` [Compound 98, 3-(5-isopropoxy-pyridin-2-yl)-N-methyl-N-(3-methylpyridin-2-yl)-1,2,4-thiadiazol-5-amine], under setting [1], the IC50 was in the range of 200 to 500 nM.

For the compound `CC(C)Oc1cnc(-c2nsc(Nc3ncc(C(C)C)cc3C(F)(F)F)n2)cc1C(N)=O` [Compound 221, 5-isopropoxy-2-(5-(5-isopropyl-3-(trifluoromethyl)pyridin-2-ylamino)-1,2,4-thiadiazol-3-yl)iso-nicotinamide], the IC50 under setting [2] lay in the range of 200 to 500 nM.

In the case of `Cc1cccnc1N(c1nc(-c2ccc(OC(C)C)cn2)ns1)C(C)C` [Compound 138, 3-(5-isoprop-oxypyridin-2-yl)-N-isopropyl-N-(3-methylpyridin-2-yl)-1,2,4-thiadiazol-5-amine], the IC50 under setting [1] lay in the range of 500 to 5000 nM.

Consider `CN1CCC(Oc2ccnc(-c3nsc(Nc4ncccc4C(F)(F)F)n3)c2)CC1` [Compound 62, 3-(4-(1-methyl-piperidin-4-yloxy)pyridin-2-yl)-N-(3-(trifluoromethyl)pyridin-2-yl)-1,2,4-thiadiazol-5-amine], for which the IC50 under setting [1] was under 200 nM.

Take `O=C1CCCN1c1cccnc1Nc1nc(-c2ccc(NC34CC(C3)C4)cn2)ns1` [Compound 204, 1-(2-(3-(5-(bicyclo [1.1.1]pentan-1-ylamino)pyridin-2-yl)-1,2,4-thiadiazol-5-ylamino)pyridin-3-yl)pyrrolidin-2-one]: under setting [2], the IC50 lay in the range of 500 to 5000 nM.

Take `CC(=O)N(C)c1cccnc1Nc1nc(-c2cc3c(cn2)N(C)CC3)ns1` [Compound 202, N-methyl-N-(2-(3-(1-methyl-2,3-dihydro-1H-pyrrolo[2,3-c]pyridin-5-yl)-1,2,4-thiadiazol-5-ylamino)pyridin-3-yl)acetamide]: the IC50 under setting [2] is 200 to 500 nM.

Consider `CC(=O)N(C)c1cccnc1Nc1nc(-c2cc3c(cn2)N(C(C)C)CC3)ns1` [Compound 206, N-(2-(3-(1-isopropyl-2,3-dihydro-1H-pyrrolo[2,3-c]pyridin-5-yl)-1,2,4-thiadiazol-5-ylamino)pyridin-3-yl)-N-methylacetamide], for which the IC50 under setting [2] is 500 to 5000 nM.

Consider `CC(=O)Nc1ncc(C(F)(F)F)cc1N(C)c1nnc(-c2ccc(OC(C)C)cn2)o1` [Compound 319, N-(3-((5-(5-isopropoxypyridin-2-yl)-1,3,4-oxadiazol-2-yl)(methyl)amino)-5-(trifluoromethyl)pyridin-2-yl)acetamide], for which the IC50 under setting [2] was in the range of 500 to 5000 nM.

As to `CC(C)Oc1ccc(-c2nnc(Nc3ncccc3N(C)C)o2)nc1` [Compound 132, N2-(5-(5-isopropoxy-pyridin-2-yl)-1,3,4-oxadiazol-2-yl)-N3,N3-dimethyl-pyridine-2,3-diamine], the 50% inhibitory concentration (IC50) under setting [1] was under 200 nM.

As to `CNC(=O)c1cccnc1Nc1nc(-c2ccc(OC(C)C)cn2)ns1` [Compound 189, 2-(3-(5-isoprop-oxypyridin-2-yl)-1,2,4-thiadiazol-5-ylamino)-N-methyl-nicotinamide], under setting [1], the IC50 was 500 to 5000 nM.

Take `COc1cccnc1Nc1nc(-c2ccc(OC(C)C)cn2)ns1` [Compound 81, 3-(5-isopropoxy-pyridin-2-yl)-N-(3-methoxy-pyridin-2-yl)-1,2,4-thiadiazol-5-amine]: the IC50 under setting [1] was under 200 nM.

Consider `COc1ccc(Nc2nnc(-c3ccc(OC(C)C)cn3)o2)nc1` [Compound 180, 5-(5-isopropoxy-pyridin-2-yl)-N-(5-methoxy-pyridin-2-yl)-1,3,4-oxadiazol-2-amine], for which the half-maximal inhibitory concentration (IC50) under setting [1] is 500 to 5000 nM.

Take `CCOc1ccc(Nc2nc(-c3ncccc3F)no2)nc1` [Compound 25, N-(5-ethoxy-pyridin-2-yl)-3-(3-fluoropyridin-2-yl)-1,2,4-oxadiazol-5-amine]: the IC50 under setting [1] was under 200 nM.

For the compound `CN(C)c1cccnc1Nc1nc(-c2cc(OC3CC3)c(C(F)(F)F)cn2)ns1` [Compound 153, N2-(3-(4-cyclo-propoxy-5-(trifluoromethyl)pyridin-2-yl)-1,2,4-thiadiazol-5-yl)-N3,N3-dimethyl-pyridine-2,3-diamine], under setting [1], the IC50 was in the range of 500 to 5000 nM.

In the case of `CC(=O)N(C)c1cnc(Nc2nc(-c3ncccc3OC(C)C)ns2)c(C(F)(F)F)c1` [Compound 279, N-(6-(3-(3-isopropoxy-pyridin-2-yl)-1,2,4-thiadiazol-5-ylamino)-5-(trifluoro-methyl)pyridin-3-yl)-N-methylacetamide], the IC50 under setting [2] was 500 to 5000 nM.

Turning to `CC(C)c1cnc(Nc2nc(-c3ccccn3)n(C)n2)cc1C(F)(F)F` [Compound 143, 5-isopropyl-N-(1-methyl-5-(pyridin-2-yl)-1H-1,2,4-triazol-3-yl)-4-(trifluoromethyl) pyridin-2-amine], the IC50 under setting [1] is 500 to 5000 nM.

As to `CC(C)Oc1ccc(-c2nsc(Nc3ncc(C(C)C)cc3C(F)(F)F)n2)nc1` [Compound 165, 3-(5-isopropoxy-pyridin-2-yl)-N-(5-isopropyl-3-(trifluoromethyl)pyridin-2-yl)-1,2,4-thiadiazol-5-amine], the IC50 under setting [1] was under 200 nM.

`CNc1cccnc1N(C)c1nc(-c2ccc(OC(C)C)cn2)ns1` [Compound 159, N2-(3-(5-isopropoxy-pyridin-2-yl)-1,2,4-thiadiazol-5-yl)-N2,N3-dimethyl-pyridine-2,3-diamine]: the IC50 under setting [1] fell in the range of 500 to 5000 nM.

Turning to `Cc1nccnc1Nc1nc(-c2ccc(OC(C)C)cn2)ns1` [Compound 135, 3-(5-isoprop-oxypyridin-2-yl)-N-(3-methyl-pyrazin-2-yl)-1,2,4-thia-diazol-5-amine], the IC50 under setting [1] was under 200 nM.

On to `CC(C)Oc1cnc(-c2nsc(Nc3ncccc3N3CCCC3=O)n2)cc1C(F)(F)F` [Compound 179, 1-(2-(3-(5-isopropoxy-4-(trifluoromethyl)pyridin-2-yl)-1,2,4-thiadiazol-5-ylamino)pyridin-3-yl)pyrrolidin-2-one], for which the IC50 under setting [1] is 500 to 5000 nM.

For the compound `CC(C)Oc1cnc(-c2nsc(Nc3ncccc3C(C)C)n2)cc1C#N` [Compound 201, 5-isopropoxy-2-(5-(3-isopropyl-pyridin-2-ylamino)-1,2,4-thiadiazol-3-yl)isonicotino-nitrile], the IC50 under setting [2] was in the range of 500 to 5000 nM.

Turning to `CC(C)Oc1ccc(-c2nnc(Nc3ccc(C(C)C)cn3)s2)nc1` [Compound 181, 5-(5-isopropoxy-pyridin-2-yl)-N-(5-isopropyl-pyridin-2-yl)-1,3,4-thiadiazol-2-amine], the IC50 under setting [1] lay within 500 to 5000 nM.

Turning to `CC(C)c1cccnc1Nc1nc(-c2ccc(OC(F)F)cn2)ns1` [Compound 127, 3-(5-(difluoro-methoxy)pyridin-2-yl)-N-(3-isopropyl-pyridin-2-yl)-1,2,4-thiadiazol-5-amine], the IC50 under setting [1] was under 200 nM.

Consider `CC(=O)N(C)c1cccnc1Nc1nc(-c2ccc(OC3CCOCC3)cn2)ns1` [Compound 199, N-methyl-N-(2-(3-(5-(tetrahydro-2H-pyran-4-yloxy)pyridin-2-yl)-1,2,4-thiadiazol-5-ylamino)pyridin-3-yl)acetamide], for which, under setting [2], the IC50 was in the range of 500 to 5000 nM.

Take `COc1cccnc1Nc1nc(-c2cc(C(F)(F)F)c(OC(C)C)cn2)ns1` [Compound 167, 3-(5-isopropoxy-4-(trifluoromethyl)pyridin-2-yl)-N-(3-methoxypyridin-2-yl)-1,2,4-thiadiazol-5-amine]: the IC50 under setting [1] was in the range of 200 to 500 nM.

With `CC(C)Oc1ccc(-c2nsc(Nc3ncccc3C3CC3)n2)nc1` [Compound 76, N-(3-cyclopropyl-pyridin-2-yl)-3-(5-isopropoxy-pyridin-2-yl)-1,2,4-thiadiazol-5-amine], the 50% inhibitory concentration (IC50) under setting [1] is under 200 nM.

Consider `Cc1cccnc1Nc1nc(-c2ccc(OC(F)(F)F)cn2)ns1` [Compound 52, N-(3-methyl-pyridin-2-yl)-3-(5-(trifluoro-methoxy)pyridin-2-yl)-1,2,4-thiadiazol-5-amine], for which, under setting [1], the IC50 is under 200 nM.

(Values after patent US11505548B2, “Heterocyclic compounds and their use for treatment of helminthic infections and diseases” (Celgene Corporation, priority 2019, dated 2022).)
